This passage reports IC50 results from PubChem BioAssay AID651796 (The Scripps Research Institute Molecular Screening Center, 2012).

Active and inactive are the calls of the source. The rule behind the calls is not given here.

The target in this assay is Nuclear receptor coactivator 1 (Homo sapiens) (UniProt Q15788). The assay can be described thus: NCOA1-driven reporter transcription inhibition – cell-based, luminescence, late-stage follow-up (AID 651796). The note with it: cell-based SRC1 reporter.
Nuclear receptor coactivator 1 (Homo sapiens), sequence (Q15788 whole entry, looked up): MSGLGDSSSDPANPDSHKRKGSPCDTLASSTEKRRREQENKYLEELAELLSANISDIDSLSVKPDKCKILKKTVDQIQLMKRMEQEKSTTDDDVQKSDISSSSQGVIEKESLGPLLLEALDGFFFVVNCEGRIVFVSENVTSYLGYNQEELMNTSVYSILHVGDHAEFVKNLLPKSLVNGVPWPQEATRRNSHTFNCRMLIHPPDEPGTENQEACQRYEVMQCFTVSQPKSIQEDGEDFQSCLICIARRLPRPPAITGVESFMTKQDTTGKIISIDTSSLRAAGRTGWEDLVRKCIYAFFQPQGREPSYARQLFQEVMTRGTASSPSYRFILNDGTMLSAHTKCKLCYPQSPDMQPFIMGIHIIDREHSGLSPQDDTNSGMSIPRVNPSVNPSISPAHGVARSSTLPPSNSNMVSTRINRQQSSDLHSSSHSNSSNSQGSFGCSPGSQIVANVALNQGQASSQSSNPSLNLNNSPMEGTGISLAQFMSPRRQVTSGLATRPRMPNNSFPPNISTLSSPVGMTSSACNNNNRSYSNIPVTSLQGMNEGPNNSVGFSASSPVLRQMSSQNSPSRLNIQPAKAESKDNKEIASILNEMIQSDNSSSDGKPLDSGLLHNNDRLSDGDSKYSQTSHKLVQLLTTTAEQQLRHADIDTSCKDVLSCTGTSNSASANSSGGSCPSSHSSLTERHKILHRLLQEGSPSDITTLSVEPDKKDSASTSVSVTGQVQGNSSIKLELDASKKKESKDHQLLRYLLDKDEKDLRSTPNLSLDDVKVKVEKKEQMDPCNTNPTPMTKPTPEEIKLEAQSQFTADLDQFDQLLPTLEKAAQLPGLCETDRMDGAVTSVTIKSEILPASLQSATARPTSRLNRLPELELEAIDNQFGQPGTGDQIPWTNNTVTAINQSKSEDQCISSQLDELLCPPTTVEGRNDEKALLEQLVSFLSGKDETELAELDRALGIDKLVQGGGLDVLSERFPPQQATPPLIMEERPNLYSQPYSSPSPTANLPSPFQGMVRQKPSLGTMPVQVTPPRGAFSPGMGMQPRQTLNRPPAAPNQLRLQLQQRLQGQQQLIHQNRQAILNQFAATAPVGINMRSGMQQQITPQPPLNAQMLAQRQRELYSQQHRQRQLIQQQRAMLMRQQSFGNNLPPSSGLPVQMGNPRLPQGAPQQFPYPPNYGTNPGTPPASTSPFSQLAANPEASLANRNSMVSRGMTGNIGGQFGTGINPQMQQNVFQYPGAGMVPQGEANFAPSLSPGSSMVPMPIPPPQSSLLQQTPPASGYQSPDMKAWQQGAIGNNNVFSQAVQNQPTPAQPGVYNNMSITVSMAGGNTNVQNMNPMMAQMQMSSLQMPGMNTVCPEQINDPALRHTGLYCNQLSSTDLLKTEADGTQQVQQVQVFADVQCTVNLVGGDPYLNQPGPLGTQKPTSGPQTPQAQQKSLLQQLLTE

With `COc1ccc(Nc2ncnc3ccc(Br)cc23)c(OC)c1`, the IC50 result is “inactive”.

Consider `COc1ccc(NC(=O)CN(C)C(=O)C2(c3ccccc3)CCCC2)cc1`, for which the IC50 was 9.94 µM.

Usually IC50 stands for the concentration needed to halve the response being measured.
